From patent US9993478B2, “1-pyrazolyl-3-(4-((2-anilinopyrimidin-4-yl) oxy) napththalen-1-yl) ureas as P38 MAP knase inhibitors” (Respivert Ltd., priority 2011, dated 2018)

Tested on: d-U937 cells
Assay: Cell viability: MTT assay
Format: cell-based, human
Details: 1 μg/mL
Procedure: Differentiated U937 cells were pre-incubated with each test compound (final concentration 1 μg/mL or 10 μg/mL in 200 μL media indicated below) under two protocols: the first for 4 hr in 5% FCS RPMI1640 media and the second in 10% FCS RPMI1640 media for 24 h. The supernatant was replaced with new media (200 μL) and MTT stock solution (10 μL, 5 mg/mL) was added to each well. After incubation for 1 hr the media were removed, DMSO (200 μL) was added to each well and the plates were shaken lightly for 1 hr prior to reading the absorbance at 550 nm. The percentage loss of cell viability was calculated for each well relative to vehicle (0.5% DMSO) treatment. Consequently an apparent increase in cell viability for drug treatment relative to vehicle is tabulated as a negative percentage.

Compound | MTT Assay Cell viability at time point in d-U937 Cells 4 h | MTT Assay Cell viability at time point in d-U937 Cells 24 h
CC(C)(C)c1cc(NC(=O)Nc2ccc(Oc3ccnc(Nc4ccccc4)n3)c3ccccc23)n(-c2ccc(O)cc2)n1 [Example 3, 1-(3-(tert-butyl)-1-(4-hydroxyphenyl)-1H-pyrazol-5-yl)-3-(4-((2-(phenylamino)pyrimidin-4-yl)oxy)naphthalen-1-yl)urea] | −ve (−ve and +ve indicate the value is below and above respectively, the no significant effect threshold defined as 30% inhibition at 1 μg/mL at the time point indicated) | −ve (−ve and +ve indicate the value is below and above respectively, the no significant effect threshold defined as 30% inhibition at 1 μg/mL at the time point indicated)
Cc1ccc(-n2nc(C(C)(C)C)cc2NC(=O)Nc2ccc(Oc3ccnc(Nc4ccccc4F)n3)c3ccccc23)cc1 [Example 4, 1-(3-(tert-butyl)-1-(p-tolyl)-1H-pyrazol-5-yl)-3-(4-((2-((2-fluorophenyl)amino)pyrimidin-4-yl)oxy)naphthalen-1-yl)urea] | −ve (−ve and +ve indicate the value is below and above respectively, the no significant effect threshold defined as 30% inhibition at 1 μg/mL at the time point indicated) | −ve (−ve and +ve indicate the value is below and above respectively, the no significant effect threshold defined as 30% inhibition at 1 μg/mL at the time point indicated)
COc1ccccc1Nc1nccc(Oc2ccc(NC(=O)Nc3cc(C(C)(C)C)nn3-c3ccc(C)cc3)c3ccccc23)n1 [Example 5, 1-(3-(tert-butyl)-1-(p-tolyl)-1H-pyrazol-5-yl)-3-(4-((2-((2-methoxyphenyl)amino)pyrimidin-4-yl)oxy)naphthalen-1-yl)urea] | −ve (−ve and +ve indicate the value is below and above respectively, the no significant effect threshold defined as 30% inhibition at 1 μg/mL at the time point indicated) | −ve (−ve and +ve indicate the value is below and above respectively, the no significant effect threshold defined as 30% inhibition at 1 μg/mL at the time point indicated)
Cc1ccc(-n2nc(C(C)(C)C)cc2NC(=O)Nc2ccc(Oc3ccnc(Nc4ccccc4Cl)n3)c3ccccc23)cc1 [Example 6, 1-(3-(tert-butyl)-1-(p-tolyl)-1H-pyrazol-5-yl)-3-(4-((2-((2-chlorophenyl)amino)pyrimidin-4-yl)oxy)naphthalen-1-yl)urea] | −ve (−ve and +ve indicate the value is below and above respectively, the no significant effect threshold defined as 30% inhibition at 1 μg/mL at the time point indicated) | −ve (−ve and +ve indicate the value is below and above respectively, the no significant effect threshold defined as 30% inhibition at 1 μg/mL at the time point indicated)
COc1ccc(-n2nc(C(C)(C)C)cc2NC(=O)Nc2ccc(Oc3ccnc(Nc4ccccc4)n3)c3ccccc23)cc1 [Example 7, 1-(3-(tert-butyl)-1-(4-methoxyphenyl)-1H-pyrazol-5-yl)-3-(4-((2-(phenylamino)pyrimidin-4-yl)oxy)naphthalen-1-yl)urea] | −ve (−ve and +ve indicate the value is below and above respectively, the no significant effect threshold defined as 30% inhibition at 1 μg/mL at the time point indicated) | −ve (−ve and +ve indicate the value is below and above respectively, the no significant effect threshold defined as 30% inhibition at 1 μg/mL at the time point indicated)
COc1ccc(Nc2nccc(Oc3ccc(NC(=O)Nc4cc(C(C)(C)C)nn4-c4ccc(C)cc4)c4ccccc34)n2)c(OC)c1 [Example 8, 1-(3-(tert-butyl)-1-(p-tolyl)-1H-pyrazol-5-yl)-3-(4-((2-((2,4-dimethoxyphenyl)amino)pyrimidin-4-yl)oxy)naphthalen-1-yl)urea] | −ve (−ve and +ve indicate the value is below and above respectively, the no significant effect threshold defined as 30% inhibition at 1 μg/mL at the time point indicated) | −ve (−ve and +ve indicate the value is below and above respectively, the no significant effect threshold defined as 30% inhibition at 1 μg/mL at the time point indicated)
Cc1ccc(-n2nc(C(C)(C)C)cc2NC(=O)Nc2ccc(Oc3ccnc(Nc4ccc(O)cc4)n3)c3ccccc23)cc1 [Example 9, 1-(3-(tert-butyl)-1-(p-tolyl)-1H-pyrazol-5-yl)-3-(4-((2-((4-hydroxyphenyl)amino)pyrimidin-4-yl)oxy)naphthalen-1-yl)urea] | −ve (−ve and +ve indicate the value is below and above respectively, the no significant effect threshold defined as 30% inhibition at 1 μg/mL at the time point indicated) | −ve (−ve and +ve indicate the value is below and above respectively, the no significant effect threshold defined as 30% inhibition at 1 μg/mL at the time point indicated)
Cc1ccc(-n2nc(C(C)(C)C)cc2NC(=O)Nc2ccc(Oc3ccnc(Nc4cc(C)ccc4C)n3)c3ccccc23)cc1 [Example 10, 1-(3-(tert-butyl)-1-(p-tolyl)-1H-pyrazol-5-yl)-3-(4-((2-((2,5-dimethylphenyl)amino)pyrimidin-4-yl)oxy)naphthalen-1-yl)urea] | −ve (−ve and +ve indicate the value is below and above respectively, the no significant effect threshold defined as 30% inhibition at 1 μg/mL at the time point indicated) | −ve (−ve and +ve indicate the value is below and above respectively, the no significant effect threshold defined as 30% inhibition at 1 μg/mL at the time point indicated)
Cc1ccc(Nc2nccc(Oc3ccc(NC(=O)Nc4cc(C(C)(C)C)nn4-c4ccc(C)cc4)c4ccccc34)n2)cc1 [Example 11, 1-(3-(tert-butyl)-1-(p-tolyl)-1H-pyrazol-5-yl)-3-(4-((2-(p-tolylamino)pyrimidin-4-yl)oxy)naphthalen-1-yl)urea] | −ve (−ve and +ve indicate the value is below and above respectively, the no significant effect threshold defined as 30% inhibition at 1 μg/mL at the time point indicated) | −ve (−ve and +ve indicate the value is below and above respectively, the no significant effect threshold defined as 30% inhibition at 1 μg/mL at the time point indicated)
Cc1ccc(-n2nc(C(C)(C)C)cc2NC(=O)Nc2ccc(Oc3ccnc(Nc4cccc(C)c4)n3)c3ccccc23)cc1 [Example 12, 1-(3-(tert-butyl)-1-(p-tolyl)-1H-pyrazol-5-yl)-3-(4-((2-(m-tolylamino)pyrimidin-4-yl)oxy)naphthalen-1-yl)urea] | −ve (−ve and +ve indicate the value is below and above respectively, the no significant effect threshold defined as 30% inhibition at 1 μg/mL at the time point indicated) | −ve (−ve and +ve indicate the value is below and above respectively, the no significant effect threshold defined as 30% inhibition at 1 μg/mL at the time point indicated)
